Consider 20 molecules from PubChem BioAssay (NCI).

Each structure is given as a SMILES string.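 Dose response: 5 concentrations. Exposure: 48 h. Format: 96-well plates. Endpoint: linear interpolation; highest concentration if not reached. GI50 is the concentration that inhibits growth by half. Definition used: TGI = concentration required for complete inhibition of growth.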

Test systems include TK-10 renal; U251 CNS; NCI-H460 lung; HOP-62 NSCLC; OVCAR-3 ovarian; RXF 393 renal; HOP-92 NSCLC; OVCAR-8 ovarian; 786-0 renal; MCF7 breast.
Holding throughout (assay): NCI tumour cell line growth inhibition, 48 h

Consider `O=C(Oc1ccc(Cl)cc1[N+](=O)[O-])c1ccccc1`, for which the TGI in the assay with TK-10 renal, in the assay on U251 CNS, with NCI-H460 lung, with HOP-62 NSCLC, in the assay on OVCAR-3 ovarian and in the assay on RXF 393 renal was above 100 µM in each case. Moreover, the TGI in the assay on HOP-92 NSCLC and in the assay with OVCAR-8 ovarian was above 100 µM each time.
For the molecule `COc1cc(/C=C/C(=O)CC(=O)/C=C/c2ccc(O)c(OC)c2)ccc1O`, the TGI was determined as 30.6 µM in the assay on TK-10 renal; 16.5 µM with U251 CNS; 10.8 µM in the assay on 786-0 renal; 23.1 µM in the assay on NCI-H460 lung; 34.3 µM in the assay on MCF7 breast; 19.1 µM in the assay on HOP-62 NSCLC. In addition, the TGI with OVCAR-3 ovarian worked out at 24.7 µM; with RXF 393 renal it was 11.3 µM; in the assay with OVCAR-8 ovarian, 28.4 µM.
For the molecule `C=C1C(=O)OC2CC1CCC1(C)OC1CCC(C)=CCCC2(C)O` (configuration not stated), the TGI in the assay on U251 CNS stood at 29.2 µM; in the assay with NCI-H460 lung, 7.85 µM; with MCF7 breast, 9.64 µM; in the assay on HOP-62 NSCLC, 19.4 µM; with OVCAR-3 ovarian it was 9.3 µM; with RXF 393 renal, 3.61 µM. Moreover, the TGI with HOP-92 NSCLC was 5.89 µM; with OVCAR-8 ovarian, 7.78 µM.
For the molecule `C=CCNS(=O)(=O)c1ncnc2nc[nH]c12`, the TGI in the assay on TK-10 renal, with U251 CNS, in the assay on 786-0 renal, with MCF7 breast, with HOP-62 NSCLC and in the assay with OVCAR-3 ovarian was above 100 µM each time. The TGI in the assay with RXF 393 renal, with HOP-92 NSCLC and in the assay on OVCAR-8 ovarian was above 100 µM throughout.
As to `C=CCSSCC=C`, the TGI with TK-10 renal was above 100 µM; with U251 CNS, above 100 µM; in the assay with 786-0 renal it was above 56.5 µM; in the assay on NCI-H460 lung it was above 100 µM; in the assay with MCF7 breast, above 100 µM; in the assay with HOP-62 NSCLC, above 100 µM. Also, the TGI is above 100 µM in the assay with OVCAR-3 ovarian, above 74 µM in the assay on RXF 393 renal, above 100 µM with HOP-92 NSCLC and above 74.4 µM with OVCAR-8 ovarian.
`Br/C(=N\Nc1nn[nH]n1)c1ccncc1`: the TGI in the assay with TK-10 renal, in the assay on U251 CNS, with 786-0 renal, in the assay on NCI-H460 lung, in the assay with MCF7 breast and in the assay on HOP-62 NSCLC was above 100 µM each time. In addition, the TGI in the assay on OVCAR-3 ovarian, with RXF 393 renal, in the assay on HOP-92 NSCLC and in the assay with OVCAR-8 ovarian was above 100 µM throughout.
In the case of `CC(=O)NNC(=O)C1CCCCN1` (configuration not stated), the TGI in the assay with TK-10 renal, in the assay on U251 CNS, in the assay with 786-0 renal, in the assay with NCI-H460 lung, in the assay with MCF7 breast and in the assay with HOP-62 NSCLC was above 100 µM each time. Further, the TGI with OVCAR-3 ovarian, in the assay with RXF 393 renal, in the assay on HOP-92 NSCLC and in the assay on OVCAR-8 ovarian was above 100 µM in each case.
With `COc1ccc(NC(=S)N/N=C(\C)c2nc3ncccc3[nH]2)cc1`, the TGI with TK-10 renal was 21.1 µM; with U251 CNS, above 100 µM; in the assay on 786-0 renal it was above 100 µM; with NCI-H460 lung, 37.9 µM; in the assay on MCF7 breast, 21.6 µM; with HOP-62 NSCLC, 59.3 µM. For the same molecule, the TGI in the assay with OVCAR-3 ovarian amounted to 6.9 µM; in the assay with HOP-92 NSCLC, 37.7 µM; in the assay with OVCAR-8 ovarian, 63.3 µM.
Turning to `CN1CC(CNC(=O)OCc2ccccc2)CC2c3cccc4c3c(cn4C)CC21` (configuration not stated), the GI50 in the assay on TK-10 renal was 1.92 µM; in the assay with U251 CNS, 1.46 µM; with NCI-H460 lung it was 1.83 µM; in the assay with MCF7 breast, 1.77 µM; in the assay on HOP-62 NSCLC, 1.52 µM; with OVCAR-3 ovarian it was 2.63 µM. For the same molecule, the results for the GI50 with RXF 393 renal, in the assay on HOP-92 NSCLC and in the assay on OVCAR-8 ovarian were 1.74 µM, 1.72 µM and 1.75 µM, respectively. In addition, the TGI in the assay with TK-10 renal is 3.67 µM; in the assay with U251 CNS, 2.91 µM; with NCI-H460 lung, 3.55 µM; with MCF7 breast, 3.29 µM; in the assay with HOP-62 NSCLC, 2.98 µM; with OVCAR-3 ovarian, 7.79 µM. Also, the figures for the TGI in the assay on RXF 393 renal, with HOP-92 NSCLC and in the assay on OVCAR-8 ovarian were 3.2 µM, 5.95 µM and 3.51 µM, respectively.
Take `COc1c(OC/C=C(\C)CCC=C(C)C)ccc2ccc(=O)oc12`: the TGI with TK-10 renal, in the assay on U251 CNS, with 786-0 renal, with MCF7 breast, in the assay with HOP-62 NSCLC and in the assay with OVCAR-3 ovarian was above 100 µM each time. In addition, the TGI with HOP-92 NSCLC and with OVCAR-8 ovarian was above 100 µM throughout.
Turning to `COc1ccc(OC)c(CC(C)N)c1` (configuration not stated), the TGI in the assay with TK-10 renal, with U251 CNS, in the assay on 786-0 renal, in the assay with NCI-H460 lung, in the assay with HOP-62 NSCLC and with OVCAR-3 ovarian was above 100 µM throughout. The TGI in the assay with RXF 393 renal and with OVCAR-8 ovarian was above 100 µM throughout.
`O=C(/C=C/c1ccccc1)N1CCCCC1`: the TGI in the assay with TK-10 renal, in the assay with U251 CNS, in the assay on 786-0 renal, in the assay with NCI-H460 lung, in the assay on MCF7 breast and in the assay with HOP-62 NSCLC was above 100 µM in each case. Besides, the TGI in the assay with OVCAR-3 ovarian, in the assay with RXF 393 renal, with HOP-92 NSCLC and in the assay on OVCAR-8 ovarian was above 100 µM each time.
On to `O=C1OCc2cc3cc4c(cc3c(-c3ccc5c(c3)OCO5)c21)OCO4` (tested in a mixture with another compound), for which the TGI was 50.8 µM in the assay with TK-10 renal; 43.7 µM in the assay with U251 CNS; above 100 µM in the assay on NCI-H460 lung; above 100 µM in the assay on MCF7 breast; 34.9 µM in the assay on HOP-62 NSCLC; 21.4 µM in the assay with OVCAR-3 ovarian. Besides, the results for the TGI with RXF 393 renal, in the assay on HOP-92 NSCLC and in the assay on OVCAR-8 ovarian were 22.5 µM, 43.5 µM and above 100 µM, respectively.
`Cn1c2c3ccc(Cl)cc3nc-2c(Cl)c2ccccc21`: the TGI was 32.5 µM in the assay with TK-10 renal; above 100 µM in the assay with U251 CNS; 33.9 µM with 786-0 renal; 43.8 µM with NCI-H460 lung; above 100 µM in the assay with MCF7 breast; 45.3 µM in the assay on HOP-62 NSCLC. The TGI was 29.7 µM in the assay on OVCAR-3 ovarian, 36.9 µM in the assay on RXF 393 renal, 37.1 µM in the assay on HOP-92 NSCLC and above 100 µM in the assay on OVCAR-8 ovarian.
For `O=C1OC2CC=CC1C2` (configuration not stated), the TGI in the assay with U251 CNS, in the assay on NCI-H460 lung, in the assay on MCF7 breast, in the assay with HOP-62 NSCLC, with OVCAR-3 ovarian and in the assay on RXF 393 renal was above 100 µM throughout. For the same molecule, the TGI in the assay on HOP-92 NSCLC and in the assay on OVCAR-8 ovarian was above 100 µM each time.
With `O=C(COc1ccc(Cl)c(Cl)c1)N(Cc1ccccc1)Cc1ccc[n+](Cc2ccc(Cl)cc2S(=O)(=O)F)c1`, the TGI in the assay on TK-10 renal, in the assay with U251 CNS, in the assay with 786-0 renal, with NCI-H460 lung, in the assay on MCF7 breast and with HOP-62 NSCLC was above 100 µM throughout. For the same molecule, the TGI with OVCAR-3 ovarian, in the assay with RXF 393 renal, with HOP-92 NSCLC and in the assay with OVCAR-8 ovarian was above 100 µM throughout.
Take `O=C1CCCC2C3CC(CN12)C1CCCCN1C3` (configuration not stated): the TGI in the assay with TK-10 renal, with U251 CNS, in the assay with 786-0 renal, in the assay on NCI-H460 lung, in the assay on MCF7 breast and in the assay with HOP-62 NSCLC was above 100 µM in each case. Also, the TGI in the assay on OVCAR-3 ovarian, in the assay with RXF 393 renal, in the assay on HOP-92 NSCLC and in the assay with OVCAR-8 ovarian was above 100 µM throughout.
On to `CCCC(=O)O.CCCC(=O)O.CCCC(=O)O.CCCC(=O)O.[Rh].[Rh]`, for which the GI50 in the assay with NCI-H460 lung was 0.165 µM; with RXF 393 renal, 0.0224 µM; in the assay on HOP-92 NSCLC, 0.211 µM; in the assay with OVCAR-8 ovarian, 0.0435 µM. The TGI with NCI-H460 lung is 0.327 µM; with RXF 393 renal, 0.052 µM; in the assay with HOP-92 NSCLC, 0.476 µM; in the assay with OVCAR-8 ovarian, 0.428 µM.
Regarding `Cl/C(=C\C=Nc1ccc(I)cc1)c1ccc2ccccc2c1`, the TGI in the assay on TK-10 renal was 49.6 µM; with U251 CNS, 35 µM; in the assay on 786-0 renal it was 40.7 µM; with NCI-H460 lung, above 79.4 µM; in the assay with MCF7 breast, above 87.5 µM; with HOP-62 NSCLC, 40.7 µM. Besides, the TGI in the assay on OVCAR-3 ovarian was 30.9 µM; in the assay on RXF 393 renal, 61.8 µM; in the assay with HOP-92 NSCLC, above 85 µM; in the assay with OVCAR-8 ovarian it was 41.3 µM.
For `c1ccc(C[N+]23CN4CN(CN(C4)C2)C3)cc1`, the TGI in the assay with TK-10 renal is above 100 µM; in the assay with U251 CNS it was 35.6 µM; with 786-0 renal it was 46.8 µM; with NCI-H460 lung, above 100 µM; in the assay on MCF7 breast it was 94.3 µM; with HOP-62 NSCLC, above 100 µM. For the same molecule, the TGI was above 100 µM with OVCAR-3 ovarian, 36.8 µM in the assay on RXF 393 renal, 70.2 µM in the assay on HOP-92 NSCLC and 81.8 µM in the assay with OVCAR-8 ovarian.
